Laboratory results: US12606552B2, “Bifunctional compound, preparation method therefor, and use thereof” (SUZHOU KINTOR PHARMACEUTICALS, INC., priority 2020, dated 2026)

Assays:
[1] = system: flank sebaceous glands of golden hamster; assay: In vivo efficacy on acne in female golden hamsters (growth of sebaceous plaques induced by testosterone propionate); details: for The inhibition rate of the growth of sebaceous plaques (%): 400 μg (1.6%) + testosterone propionate 12 μg, skin smear once a day, 21 days
From the text: Activity Assay Example 7: In Vivo Efficacy of Compounds on Acne in Female Golden Hamsters
1. Test object: The flank sebaceous glands of golden hamster are androgen-dependent organs, and testosterone propionate (male hormone) promotes the enlargement of sebaceous glands. This experiment is mainly to study the inhibitory effect of CB-03-01 (positive drug), Flutamide (positive drug) and the compound on sebaceous gland enlargement in female golden hamster acne model (androgen dependence), to further observe the in vivo drug efficacy of the compound, to provide the basis for clinical trials of androgen-induced acne symptoms.
Androgen (Testosterone Propionate-TP); CB-03-01 (Clascoterone, CAS No. 19608-29-8); □ Flutamide (Flutamide, CAS No. 13311-84-7); compound A46 of the present invention.
2.2 Experimental Animals, See Table 4 for Details
2.3 Administration Vehicle: Acetone. 3. Experimental Design
In this experiment, from 72 female golden hamsters, according to the size and body weight of sebaceous glands, golden hamsters were evenly distributed to each group, 6 mice per group, a total of 7 groups, and they were administered continuously for 21 days.
According to the protocol in the table, […] of drug was administered each time, it was evenly smeared on the sebaceous glands, and administered once a day.
Animal grouping and status observation: Before grouping, the body weight was weighed, and the sebaceous glands on both sides were shaved for the observation of the size of sebaceous glands. Animals were observed twice a day in the morning and afternoon during the administration period. On the 21st day after administration, the size of sebaceous glands and the body weight of animals were observed and recorded.
The size of the sebaceous glands is expressed by the area, and the vernier caliper recorded its long side (a) and short side (b), and the area of the sebaceous glands (S) is obtained from the formula for calculating the area of a rectangle. In model group and administration group, ΔS=S−S(vehicle). Growth inhibition rate (%)=(ΔS(acetone testosterone group)−ΔS (administration group))/ΔS(acetone testosterone group)*100%.

[2] = system: LNCaP (human prostate cancer); assay: Hormone-dependent prostate cancer long-term efficacy test (LNCaP xenograft, tumor growth inhibition); type: in vivo, SCID nude mice
Method: Activity Assay Example 5: Hormone-Dependent Prostate Cancer Long-Term Efficacy Test
1. Tumor Model Establishment
1.5*10^7 LNCaP (human prostate cancer) was purchased from the Chinese Academy of Sciences Cell Bank and cultured in RPMI-1640 medium containing 10% fetal bovine serum. The cells were grown to 80-90% confluence and passaged in about 4-5 days, and the cells were grown to a sufficient amount and then inoculated into nude mice.
18-20 g SCID nude mice aged 6-7 weeks old were purchased from Beijing Vital River Co., Ltd. Mice were kept in SPF animal room, in which the temperature was 20-25° C., and the humidity was 40%-70%, and light/dark was 12 hours a day respectively. Animals were kept in separate cages, 5 per cage, with free access to food and water, in which the feed was sterilized by irradiation, and the water was autoclaved. The mice were grouped for experiment when raised to 10˜11 weeks old. LNCaP tumor cells were directly inoculated into the right back of nude mice.
3. Grouping and Administration Schedule Design
When the average tumor volume reached 200-300 mm^3, the tumors with good shape were selected for random number grouping according to the tumor volume, and the selected animals were marked and divided into 5 groups, 5 per group. Administration vehicle: 5% EtOH, 5% solutolHS15 in PBS. The corresponding dose of compound was administered by gavage.
Data are presented as mean±standard deviation (Mean±SD). One-way multi-level analysis of variance was used for statistics, and the comparison between each drug group and the model group was performed by Stundent's t-test or rank sum test, and the p value was calculated. p<0.05 means there is a significant difference between the two groups.

AR = biological target: T1, AR (Homo sapiens, UniProt P10275, T878A); assay: Effects of compounds on AR expression in LNCaP cells (ELISA, DC50); type: cell-based; set-up: Measurement of the Effects of Drugs on the Expression of AR in Cells by ELISA Method; endogenous in cells; host or cells: LNCaP; details: 24 hours of drug treatment, AR by ELISA
T1 sequence (P10275 1-920 T878A): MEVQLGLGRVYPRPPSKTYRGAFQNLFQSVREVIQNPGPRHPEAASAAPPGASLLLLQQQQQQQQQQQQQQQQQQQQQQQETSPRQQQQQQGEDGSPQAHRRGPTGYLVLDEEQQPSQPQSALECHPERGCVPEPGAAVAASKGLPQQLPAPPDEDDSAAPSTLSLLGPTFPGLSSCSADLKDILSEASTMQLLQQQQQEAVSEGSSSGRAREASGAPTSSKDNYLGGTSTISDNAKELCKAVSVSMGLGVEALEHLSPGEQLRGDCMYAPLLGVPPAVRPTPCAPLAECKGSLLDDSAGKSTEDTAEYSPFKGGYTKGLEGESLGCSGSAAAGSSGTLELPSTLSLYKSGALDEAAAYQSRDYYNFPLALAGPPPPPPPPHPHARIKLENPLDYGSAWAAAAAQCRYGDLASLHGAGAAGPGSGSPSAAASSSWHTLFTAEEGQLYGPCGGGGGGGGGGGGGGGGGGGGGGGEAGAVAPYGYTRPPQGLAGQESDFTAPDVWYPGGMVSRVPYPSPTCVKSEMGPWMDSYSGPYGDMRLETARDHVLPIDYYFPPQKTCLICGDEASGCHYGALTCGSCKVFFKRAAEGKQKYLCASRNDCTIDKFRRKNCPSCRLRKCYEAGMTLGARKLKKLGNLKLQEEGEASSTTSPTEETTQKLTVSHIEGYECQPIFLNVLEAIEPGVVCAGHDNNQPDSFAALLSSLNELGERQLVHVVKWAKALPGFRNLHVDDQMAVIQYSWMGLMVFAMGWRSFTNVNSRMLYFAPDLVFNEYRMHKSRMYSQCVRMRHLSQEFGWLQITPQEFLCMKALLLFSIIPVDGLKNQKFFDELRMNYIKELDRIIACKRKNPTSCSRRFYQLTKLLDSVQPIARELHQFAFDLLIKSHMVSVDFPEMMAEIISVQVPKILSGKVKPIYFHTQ
Summary of the method: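 LNCaP cells at about 15,000/well were treated for 24 h with compound at 0.0001–2 μmol/L final. AR in cell lysates was measured by ELISA (OD450). Inhibition was relative to DMSO control after blank subtraction, and DC50 was calculated from it.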

SMILES: CCC(=O)O[C@]1(C(=O)CO)CC[C@H]2[C@@H]3CCC4=CC(=O)CC[C@]4(C)[C@H]3CC[C@@]21C [CB-03-01, Clascoterone, reference compound]
- The inhibition rate of the growth of sebaceous plaques (%) [1]: 69.53%

SMILES: Cc1ncsc1-c1ccc(CNC(=O)[C@@H]2C[C@@H](O)CN2C(=O)[C@@H](NC(=O)COCCCCOc2ccc(-c3ncc(N4C(=S)N(c5ccc(C#N)c(C(F)(F)F)c5F)C(=O)C4(C)C)cc3F)c(C(F)(F)F)c2)C(C)(C)C)cc1 [Compound A88]
- Tumor growth inhibition rate ([2]; 10 mpk by gavage, 3 days): 19.81%
- Tumor growth inhibition rate ([2]; 10 mpk by gavage, 7 days): 38.44%
- Tumor growth inhibition rate ([2]; 10 mpk by gavage, 10 days): 31.33%
- Tumor growth inhibition rate ([2]; 10 mpk by gavage, 14 days): 13.15%
- Tumor growth inhibition rate ([2]; 25 mpk by gavage, 3 days): 14.98%
- Tumor growth inhibition rate ([2]; 25 mpk by gavage, 7 days): 36.36%
- Tumor growth inhibition rate ([2]; 25 mpk by gavage, 10 days): 37.51%
- Tumor growth inhibition rate ([2]; 25 mpk by gavage, 14 days): 24.68%
- Tumor growth inhibition rate ([2]; 50 mpk by gavage, 3 days): 22.30%
- Tumor growth inhibition rate ([2]; 50 mpk by gavage, 7 days): 51.85%
- Tumor growth inhibition rate ([2]; 50 mpk by gavage, 10 days): 42.62%
- Tumor growth inhibition rate ([2]; 50 mpk by gavage, 14 days): 24.47%
- DC50 (AR): 55 nM

SMILES: CC(C)C(=O)Nc1ccc([N+](=O)[O-])c(C(F)(F)F)c1 [Flutamide, reference compound]
- The inhibition rate of the growth of sebaceous plaques (%) [1]: 40.74%

SMILES: CCC(=O)O[C@H]1CC[C@H]2[C@@H]3CCC4=CC(=O)CC[C@]4(C)[C@H]3CC[C@]12C [testosterone propionate, reference compound]
- area of sebaceous plaques ([1]; model group, 12 μg TP skin smear, after 21 days): 40-50 mm^2
